Results taken from PubChem BioAssay AID1918956 (Molecular Pharmacology Branch, DTP, NCI, 2023).

Tested on: OVCAR-5 complex spheroids, viability
Test: Anticancer human tumor OVCAR-5 cell line growth inhibition;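 also: spheroids exposed to agents for seven days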;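 as to viability, T/C: 100% = DMSO vehicle control wells viability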
Conditions: for IC50: curve of first compound; for viability, T/C: stronger effect = lower value
Summary of the method: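 Multicellular complex spheroids of tumor cells with human endothelial cells (HUVEC) and mesenchymal stem cells; the LSD1 inhibitor iadademstat was combined with standard-of-care or investigational agents. Top concentration at or near clinical Cmax, half-log dilutions; final DMSO ≤0.25%.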

[1] = second compound 0.1 µM, first compound 0.00949 µM
[2] = second compound 0.1 µM, first compound 0.03 µM
[3] = second compound 0.1 µM, first compound 0.0949 µM
[4] = second compound 0.1 µM, first compound 0.3 µM
[5] = second compound 0.1 µM, first compound 0.949 µM
[6] = second compound 0.1 µM, first compound 3 µM
[7] = second compound 0.316 µM, first compound 0.00949 µM
[8] = second compound 0.316 µM, first compound 0.03 µM
[9] = second compound 0.316 µM, first compound 0.0949 µM
[10] = second compound 0.316 µM, first compound 0.3 µM
[11] = second compound 0.316 µM, first compound 0.949 µM
[12] = second compound 0.316 µM, first compound 3 µM
[13] = second compound 1 µM, first compound 0.00949 µM
[14] = second compound 1 µM, first compound 0.03 µM
[15] = second compound 1 µM, first compound 0.0949 µM
[16] = second compound 1 µM, first compound 0.3 µM
[17] = second compound 1 µM, first compound 0.949 µM
[18] = second compound 1 µM, first compound 3 µM
[19] = second compound 3.16 µM, first compound 0.00949 µM
[20] = second compound 3.16 µM, first compound 0.03 µM
[21] = second compound 3.16 µM, first compound 0.0949 µM
[22] = second compound 3.16 µM, first compound 0.3 µM
[23] = second compound 3.16 µM, first compound 0.949 µM
[24] = second compound 3.16 µM, first compound 3 µM
[25] = second compound 10 µM, first compound 0.00949 µM
[26] = second compound 10 µM, first compound 0.03 µM
[27] = second compound 10 µM, first compound 0.0949 µM
[28] = second compound 10 µM, first compound 0.3 µM
[29] = second compound 10 µM, first compound 0.949 µM
[30] = second compound 10 µM, first compound 3 µM

## NS(=O)(=O)OCC1CC(n2ccc3c(NC4CCc5ccccc54)ncnc32)CC1O (stereo not given) + NC1CCC(NC2CC2c2ccccc2)CC1
Second compound 0.1 µM
  IC50: 202 nM
Second compound 0.316 µM
  IC50: 223 nM
Second compound 1 µM
  IC50: 221 nM
Second compound 3.16 µM
  IC50: 179 nM
Second compound 10 µM
  IC50: 152 nM
[1]
  viability, T/C: 122%
[2]
  viability, T/C: 118%
[3]
  viability, T/C: 76%
[4]
  viability, T/C: 36.6%
[5]
  viability, T/C: 16.2%
[6]
  viability, T/C: 9.81%
[7]
  viability, T/C: 139%
[8]
  viability, T/C: 126%
[9]
  viability, T/C: 84.8%
[10]
  viability, T/C: 38.4%
[11]
  viability, T/C: 15.5%
[12]
  viability, T/C: 10.6%
[13]
  viability, T/C: 108%
[14]
  viability, T/C: 98.6%
[15]
  viability, T/C: 80.8%
[16]
  viability, T/C: 38.2%
[17]
  viability, T/C: 17.9%
[18]
  viability, T/C: 10.7%
[19]
  viability, T/C: 98.8%
[20]
  viability, T/C: 105%
[21]
  viability, T/C: 69.2%
[22]
  viability, T/C: 33.5%
[23]
  viability, T/C: 16.4%
[24]
  viability, T/C: 9.81%
[25]
  viability, T/C: 101%
[26]
  viability, T/C: 79.3%
[27]
  viability, T/C: 64.7%
[28]
  viability, T/C: 34%
[29]
  viability, T/C: 14.3%
[30]
  viability, T/C: 8.62%

## O=C(C=Cn1cnc(-c2cc(C(F)(F)F)cc(C(F)(F)F)c2)n1)NNc1cnccn1 + NC1CCC(NC2CC2c2ccccc2)CC1
Second compound 0.1 µM
  IC50: 235 nM
Second compound 0.316 µM
  IC50: 215 nM
Second compound 1 µM
  IC50: > 1000 nM
Second compound 3.16 µM
  IC50: 705 nM
Second compound 10 µM
  IC50: 312 nM
Second compound 0.1 µM, first compound 0.00316 µM
  viability, T/C: 97.6%
Second compound 0.1 µM, first compound 0.01 µM
  viability, T/C: 88.2%
Second compound 0.1 µM, first compound 0.0316 µM
  viability, T/C: 67.2%
Second compound 0.1 µM, first compound 0.1 µM
  viability, T/C: 55%
Second compound 0.1 µM, first compound 0.316 µM
  viability, T/C: 50.3%
Second compound 0.1 µM, first compound 1 µM
  viability, T/C: 44.9%
Second compound 0.316 µM, first compound 0.00316 µM
  viability, T/C: 104%
Second compound 0.316 µM, first compound 0.01 µM
  viability, T/C: 85.8%
Second compound 0.316 µM, first compound 0.0316 µM
  viability, T/C: 69.6%
Second compound 0.316 µM, first compound 0.1 µM
  viability, T/C: 51%
Second compound 0.316 µM, first compound 0.316 µM
  viability, T/C: 49.6%
Second compound 0.316 µM, first compound 1 µM
  viability, T/C: 45.7%
Second compound 1 µM, first compound 0.00316 µM
  viability, T/C: 88.4%
Second compound 1 µM, first compound 0.01 µM
  viability, T/C: 84.1%
Second compound 1 µM, first compound 0.0316 µM
  viability, T/C: 68.8%
Second compound 1 µM, first compound 0.1 µM
  viability, T/C: 59.4%
Second compound 1 µM, first compound 0.316 µM
  viability, T/C: 54.5%
Second compound 1 µM, first compound 1 µM
  viability, T/C: 50.3%
Second compound 3.16 µM, first compound 0.00316 µM
  viability, T/C: 97.9%
Second compound 3.16 µM, first compound 0.01 µM
  viability, T/C: 88.1%
Second compound 3.16 µM, first compound 0.0316 µM
  viability, T/C: 74.4%
Second compound 3.16 µM, first compound 0.1 µM
  viability, T/C: 60%
Second compound 3.16 µM, first compound 0.316 µM
  viability, T/C: 57.2%
Second compound 3.16 µM, first compound 1 µM
  viability, T/C: 46.9%
Second compound 10 µM, first compound 0.00316 µM
  viability, T/C: 83.6%
Second compound 10 µM, first compound 0.01 µM
  viability, T/C: 84.7%
Second compound 10 µM, first compound 0.0316 µM
  viability, T/C: 70.6%
Second compound 10 µM, first compound 0.1 µM
  viability, T/C: 59.8%
Second compound 10 µM, first compound 0.316 µM
  viability, T/C: 50%
Second compound 10 µM, first compound 1 µM
  viability, T/C: 46.3%

## O=C(C=Cc1cccc(S(=O)(=O)Nc2ccccc2)c1)NO + NC1CC1c1ccc(-c2cccc(O)c2)cc1
Second compound 0.1 µM
  IC50: 118 nM
Second compound 0.316 µM
  IC50: 124 nM
Second compound 1 µM
  IC50: 81.9 nM
Second compound 3.16 µM
  IC50: 74 nM
Second compound 10 µM
  IC50: 78 nM
[1]
  viability, T/C: 90.3%
[2]
  viability, T/C: 78.2%
[3]
  viability, T/C: 54.6%
[4]
  viability, T/C: 28.7%
[5]
  viability, T/C: 11.8%
[6]
  viability, T/C: 2.54%
[7]
  viability, T/C: 89.4%
[8]
  viability, T/C: 82.5%
[9]
  viability, T/C: 55.3%
[10]
  viability, T/C: 27.7%
[11]
  viability, T/C: 13.8%
[12]
  viability, T/C: 2.81%
[13]
  viability, T/C: 82.7%
[14]
  viability, T/C: 69.6%
[15]
  viability, T/C: 46.5%
[16]
  viability, T/C: 25.3%
[17]
  viability, T/C: 9.19%
[18]
  viability, T/C: 2.22%
[19]
  viability, T/C: 82.9%
[20]
  viability, T/C: 67.5%
[21]
  viability, T/C: 44.3%
[22]
  viability, T/C: 25.9%
[23]
  viability, T/C: 10.2%
[24]
  viability, T/C: 2.06%
[25]
  viability, T/C: 87.9%
[26]
  viability, T/C: 73.9%
[27]
  viability, T/C: 40.2%
[28]
  viability, T/C: 28.6%
[29]
  viability, T/C: 11.8%
[30]
  viability, T/C: 2.64%
